This passage reports ΔTm and IC50 results from patent publication US20250042895A1, “INHIBITORS OF ULK1 AND METHODS OF USE” (H. LEE MOFFITT CANCER CENTER AND RESEARCH INSTITUTE, INC., priority 2021, published 2025).

The target in test [1] is T1, ULK1 kinase domain (Homo sapiens, UniProt O75385).
T1 construct: The protein expression construct of ULK1 kinase domain (1-283) was cloned; 6His-Sumo (N, cleaved yes); made in house; host or cells: E. coli BL21 star, co-expressed with lambda phosphatase
T1 sequence (O75385 1-283): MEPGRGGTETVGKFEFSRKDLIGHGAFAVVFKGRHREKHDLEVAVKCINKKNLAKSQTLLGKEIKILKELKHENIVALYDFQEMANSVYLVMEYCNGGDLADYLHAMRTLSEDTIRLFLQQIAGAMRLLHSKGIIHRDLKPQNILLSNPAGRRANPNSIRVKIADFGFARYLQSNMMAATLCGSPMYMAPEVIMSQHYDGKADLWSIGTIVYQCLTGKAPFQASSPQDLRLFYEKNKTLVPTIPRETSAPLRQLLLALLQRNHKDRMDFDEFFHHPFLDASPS
The experiment in a line: Differential scanning fluorimetry (thermal shift). The class given is binding. The conditions noted are these: 2 μM ULK1 kinase domain, 50 μM compound, vs DMSO reference. In general terms: In DSF a fluorescence change marks the thermal transition of the protein.

Test [2] addresses T2, GST-ULK1 (Homo sapiens, UniProt O75385).
T2 sequence (O75385 1-1050): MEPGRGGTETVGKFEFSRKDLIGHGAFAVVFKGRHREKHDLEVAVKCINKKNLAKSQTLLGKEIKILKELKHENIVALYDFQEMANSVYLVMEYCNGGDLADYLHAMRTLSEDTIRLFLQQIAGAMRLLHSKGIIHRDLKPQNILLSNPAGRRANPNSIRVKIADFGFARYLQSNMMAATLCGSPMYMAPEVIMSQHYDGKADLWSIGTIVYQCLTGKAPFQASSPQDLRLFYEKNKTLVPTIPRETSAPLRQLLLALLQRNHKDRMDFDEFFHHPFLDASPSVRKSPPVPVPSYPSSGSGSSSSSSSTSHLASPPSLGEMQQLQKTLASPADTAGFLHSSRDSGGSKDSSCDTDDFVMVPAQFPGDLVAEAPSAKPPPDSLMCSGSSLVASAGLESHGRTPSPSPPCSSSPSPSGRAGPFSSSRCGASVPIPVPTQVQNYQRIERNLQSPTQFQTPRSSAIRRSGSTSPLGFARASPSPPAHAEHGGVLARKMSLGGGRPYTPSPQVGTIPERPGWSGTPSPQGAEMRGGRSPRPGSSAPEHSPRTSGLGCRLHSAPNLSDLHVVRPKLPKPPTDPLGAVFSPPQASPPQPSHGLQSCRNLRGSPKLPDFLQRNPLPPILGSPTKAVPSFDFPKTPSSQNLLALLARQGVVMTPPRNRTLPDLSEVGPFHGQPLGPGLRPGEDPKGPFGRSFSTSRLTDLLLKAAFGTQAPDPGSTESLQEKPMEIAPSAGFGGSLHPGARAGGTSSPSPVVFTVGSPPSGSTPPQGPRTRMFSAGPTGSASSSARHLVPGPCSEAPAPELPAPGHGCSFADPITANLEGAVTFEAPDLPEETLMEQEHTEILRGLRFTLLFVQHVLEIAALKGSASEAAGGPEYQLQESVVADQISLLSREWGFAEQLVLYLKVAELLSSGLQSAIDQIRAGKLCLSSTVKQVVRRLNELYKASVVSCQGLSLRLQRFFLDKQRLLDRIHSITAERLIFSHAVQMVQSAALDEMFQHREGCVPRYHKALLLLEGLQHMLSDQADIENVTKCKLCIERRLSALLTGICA
Description: LanthaScreen ULK1 inhibitor assay. To be noted: 5 nM GST-ULK1, 30 nM tracer, 20 μM ATP, 1 hr room temperature. Format: biochemical. (In general: TR-FRET usually uses a lanthanide donor and a delayed reading to cut background.)

For test [3], the target named is T3, ULK1 kinase (Homo sapiens, UniProt O75385).
T3 construct: purchased Reaction Biology
T3 sequence (O75385 1-1050): T2 sequence (O75385 1-1050)
The experiment in a line: Radiometric HotSpot kinase assay (Reaction Biology). Format: biochemical. The conditions noted are these: activity-based ULK1 kinase assay.

As a reminder, the ΔTm is the shift of the melting midpoint relative to a reference. As a reminder, the IC50 is the midpoint of a concentration-inhibition curve.

Consider `CS(=O)(=O)NC1CCN(C(=O)c2cc(-c3cnc4[nH]c(-c5ccc(F)cc5)cc4c3)cs2)C1` (stereo not shown) [Compound 9, N-(1-(4-(2-(4-Fluorophenyl)-1H-pyrrolo[2,3-b]pyridin-5-yl)thiophene-2-carbonyl)pyrrolidin-3-yl)methanesulfonamide], for which, in test [1], the thermal shift (ΔTm) at 50 µM came out at 1.29 °C.
Still for that read-out and setting: to `O=C(c1cc(-c2cnc3[nH]c(-c4ccc(F)cc4)cc3c2)cs1)N1CCC(NC(=O)C(F)(F)F)C1` (stereo not shown) [Compound 24, 2,2,2-Frifluoro-N-(1-(4-(2-(4-fluorophenyl)-1H-pyrrolo[2,3-b]pyridin-5-yl)thiophene-2-carbonyl)pyrrolidin-3-yl)acetamide] belongs 0.4 °C.
Consider `CS(=O)(=O)N1CCN(C(=O)c2cc(-c3cnc4[nH]c(-c5ccc(F)cc5)cc4c3)cs2)CC1` [Compound 29, (4-(2-(4-Fluorophenyl)-1H-pyrrolo[2,3-b]pyridin-5-yl)thiophen-2-yl)(4-(methyl-sulfonyl)piperazin-1-yl)methanone], for which the half-maximal inhibitory concentration (IC50) stood at 1230 nM in test [2] and 938 nM in test [3]. Moreover, the ΔTm at 50 µM in test [1] worked out at 0.9 °C.
In the case of `CC(C)(C)OC(=O)N1CCC(c2cc3cc(-c4csc(C(=O)NCC(F)(F)F)c4)cnc3[nH]2)CC1` [Compound 40, tert-Butyl 4-(5-(5-((2,2,2-trifluoroethyl)carbamoyl)thiophen-3-yl)-1H-pyrrolo[2,3-b]-pyridin-2-yl)piperidine-1-carboxylate], the ΔTm at 50 µM in test [1] came to 1.63 °C.
For the molecule `CC(C)(C)OC(=O)N1CCC=C(c2cc3cc(-c4csc(C(=O)NCC(F)(F)F)c4)cnc3[nH]2)C1` [Compound 41, tert-Butyl 5-(5-(5-((2,2,2-trifluoroethyl)carbamoyl)thiophen-3-yl)-1H-pyrrolo[2,3-b]-pyridin-2-yl)-3,6-dihydropyridine-1(2H)-carboxylate], the half-inhibitory concentration (IC50) in test [2] was found to be 75 nM; in test [3] it was 333 nM. For the same molecule, the ΔTm at 50 µM in test [1] is 9.89 °C.
Take `CC(C)(C)OC(=O)N1CCCC(c2cc3cc(-c4csc(C(=O)NCC(F)(F)F)c4)cnc3[nH]2)C1` (stereo not shown) [Compound 43, tert-Butyl 3-(5-(5-((2,2,2-trifluoroethyl)carbamoyl)thiophen-3-yl)-1H-pyrrolo[2,3-b]-pyridin-2-yl)piperidine-1-carboxylate]: the ΔTm at 50 µM in test [1] is 4.2 °C.
Consider `O=C(NC[C@@H](O)CO)c1cccc(-c2cnc3[nH]c(-c4ccc(F)cc4)cc3c2)c1` [Compound 48, (R)—N-(2,3-Dihydroxypropyl)-3-(2-(4-fluorophenyl)-1H-pyrrolo[2,3-b]pyridin-5-yl)benzamide], for which the IC50 in test [2] was 475 nM; in test [3] it was 261 nM. In test [1], the ΔTm at 50 µM worked out at 4.52 °C.
On to `O=C(NC(CO)CO)c1cccc(-c2cnc3[nH]c(-c4ccc(F)cc4)cc3c2)c1` [Compound 49, N-(1,3-Dihydroxypropan-2-yl)-3-(2-(4-fluorophenyl)-1H-pyrrolo[2,3-b]pyridin-5-yl)benzamide], for which the IC50 in test [2] worked out at 543 nM; in test [3], 341 nM. Further, the thermal shift (ΔTm) at 50 µM in test [1] amounted to 5.11 °C.
The matching figures for `O=C(NCC(O)C(F)(F)F)c1cccc(-c2cnc3[nH]c(-c4ccc(F)cc4)cc3c2)c1` (stereo not shown) [Compound 50, 3-(2-(4-Fluorophenyl)-1H-pyrrolo[2,3-b]pyridin-5-yl)-N-(3,3,3-trifluoro-2-hydroxy-propyl)benzamide]: 86 nM, 91 nM and 4.4 °C.
The matching figures for `O=C(NC[C@H](O)CO)c1cccc(-c2cnc3[nH]c(-c4ccc(F)cc4)cc3c2)c1` [Compound 51, (S)—N-(2,3-Dihydroxypropyl)-3-(2-(4-fluorophenyl)-1H-pyrrolo[2,3-b]pyridin-5-yl)-benzamide]: 387 nM, 184 nM and 4.76 °C.
The matching figures for `O=C(NC[C@@H](O)CO)c1cccc(-c2cnc3[nH]c(-c4ccc(F)cc4)cc3c2)n1` [Compound 52, (R)—N-(2,3-Dihydroxypropyl)-6-(2-(4-fluorophenyl)-1H-pyrrolo[2,3-b]pyridin-5-yl)-picolinamide]: 106 nM, 45 nM and 8.86 °C.
Take `CC[C@H](CO)NC(=O)c1cccc(-c2cnc3[nH]c(-c4ccc(F)cc4)cc3c2)c1` [Compound 53, (R)-3-(2-(4-Fluorophenyl)-1H-pyrrolo[2,3-b]pyridin-5-yl)-N-(1-hydroxybutan-2-yl)benzamide]: the half-maximal inhibitory concentration (IC50) in test [2] was 94 nM; in test [3], 66 nM. In addition, the ΔTm at 50 µM in test [1] came to 3.11 °C.
As for `O=C(c1nc(-c2cnc3[nH]c(-c4ccc(F)cc4)cc3c2)cs1)N1CC(F)(F)C1` [Compound 75, (3,3-difluoroazetidin-1-yl)(4-(2-(4-fluorophenyl)-1H-pyrrolo[2,3-b]-pyridin-5-yl)thiazol-2-yl)-methanone], the ΔTm at 50 µM in test [1] is 3 °C.
`FC1(F)CN(c2c(C(F)(F)F)cnc3[nH]c(C4CCOCC4)cc23)C1` [Compound 85, 4-(3,3-difluoroazetidin-1-yl)-2-(tetrahydro-2H-pyran-4-yl)-5-(trifluoromethyl)-1H-pyrrolo[2,3-b]pyridine]: the shift in melting temperature (ΔTm) at 50 µM in test [1] amounted to 0.54 °C.
In the case of `FC1(F)CCN(c2c(C(F)(F)F)cnc3[nH]c(C4CCOCC4)cc23)CC1` [Compound 92, 4-(4,4-difluoropiperidin-1-yl)-2-(tetrahydro-2H-pyran-4-yl)-5-(trifluoromethyl)-1H-pyrrolo[2,3-b]pyridine], in test [1], the thermal shift (ΔTm) at 50 µM was 0.88 °C.
Still for that read-out and setting: the figure for `CN1CCC(c2cc3c(NCCCN4CCCC4)c(C(F)(F)F)cnc3[nH]2)CC1` [Compound 94, 2-(1-methylpiperidin-4-yl)-N-(3-(pyrrolidin-1-yl)propyl)-5-(trifluoromethyl)-1H-pyrrolo[2,3-b]pyridin-4-amine] is 0.76 °C; for `CN1CCC(c2cc3c(N4CC(F)(F)C4)c(C(F)(F)F)cnc3[nH]2)CC1` [Compound 96, 4-(3,3-difluoroazetidin-1-yl)-2-(1-methylpiperidin-4-yl)-5-(trifluoromethyl)-1H-pyrrolo[2,3-b]pyridine] it is 3.09 °C.
Consider `O=C(NCC1(O)CC1)c1cc(-c2cnc3[nH]c(C4=CCNC4)cc3c2)cs1` [Compound 109], for which, in test [2], the IC50 turned out to be 80 nM.
Still for that read-out and setting: to `FC(F)(F)c1cnc2[nH]c(C3=CCCNC3)cc2c1NCCN1CCNCC1` [Compound 112] belongs 8 nM; to `FC(F)(F)c1cnc2[nH]c(C3=CCNC3)cc2c1NCCN1CCNCC1` [Compound 113], 63 nM; to `FC(F)(F)c1cnc2[nH]c(C3=CCNCC3)cc2c1NCCN1CCNCC1` [Compound 114], 14 nM.
Same read-out and setting: the figure for `FC1(F)CN(c2c(C(F)(F)F)cnc3[nH]c(C4=CCNCC4)cc23)C1` [Compound 115] is 81 nM.
In the case of `FC(F)(F)c1cnc2[nH]c(C3=CCCNC3)cc2c1NCCN1CCOCC1` [Compound 116], the concentration for half-maximal inhibition (IC50) in test [2] amounted to 201 nM. This IC50 is about 2.5-fold higher than that of the molecule before.
Still for that read-out and setting: to `FC(F)(F)c1cnc2[nH]c(C3=CCNC3)cc2c1NCCN1CCOCC1` [Compound 117] belongs 85 nM.
On the same count and under the same terms, to `FC(F)(F)c1cnc2[nH]c(C3=CCNCC3)cc2c1NCCN1CCOCC1` [Compound 118] belongs 126 nM; to `FC(F)(F)c1cnc2[nH]c(C3=CCCNC3)cc2c1NCCCN1CCCC1` [Compound 119], 1600 nM; to `FC(F)(F)c1cnc2[nH]c(C3=CCNC3)cc2c1NCCCN1CCCC1` [Compound 120], 1210 nM.
Same read-out and setting: to `FC(F)(F)c1cnc2[nH]c(C3=CCNCC3)cc2c1NCCCN1CCCC1` [Compound 121] belongs 320 nM; to `FC1(F)CN(c2c(C(F)(F)F)cnc3[nH]c(C4=CCCNC4)cc23)C1` [Compound 141], 884 nM; to `O=C(NCC(F)(F)F)c1cc(-c2cnc3[nH]c(C4=CCN(C5CCC(C(=O)O)CC5)CC4)cc3c2)cs1` (stereo not shown) [compound 142], 88 nM.
